Key:
[1] = biological target: T1, GST tagged PIP4KtypeIIB (Homo sapiens, UniProt P78356); assay: Trans-FI P kinase assay PIP4K2B (PIP4KtypeIIB inhibition assay); type: biochemical; settings: Table 4; compounds listed under IC50 range headings; 100 uM GTP, 5 nM PIP4KIIB; read-out: Trans-FI P kinase assays: PIP4K2B IC50
T1 construct: made in house; host or cells: E. coli
T1 sequence (P78356 1-416): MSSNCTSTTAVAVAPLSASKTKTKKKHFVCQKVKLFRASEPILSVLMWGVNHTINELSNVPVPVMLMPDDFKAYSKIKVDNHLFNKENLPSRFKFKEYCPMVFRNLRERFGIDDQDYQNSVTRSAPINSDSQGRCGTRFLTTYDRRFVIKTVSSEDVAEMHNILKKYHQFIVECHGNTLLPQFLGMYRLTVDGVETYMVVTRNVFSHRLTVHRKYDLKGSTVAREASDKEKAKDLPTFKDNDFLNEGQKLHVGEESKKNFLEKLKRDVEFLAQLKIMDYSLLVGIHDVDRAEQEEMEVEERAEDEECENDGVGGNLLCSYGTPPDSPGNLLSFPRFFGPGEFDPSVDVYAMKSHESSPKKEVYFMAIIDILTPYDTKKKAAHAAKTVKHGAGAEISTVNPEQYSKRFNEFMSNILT
How it was run: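 Purified GST-PIP4KIIB (5 nM final), 1 h preincubation with compound at 27 C, then 2 h reaction with 100 uM GTP and 80 uM PI5P plus DOPE carrier lipid in pH 7.3 HEPES/MgCl2/Triton buffer with 5% DMSO. GDP read by Transcreener FI fluorescence against a calibration curve; IC50 from % no-inhibitor activity vs log concentration.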

[2] = biological target: T2, PIP4K2A (full length protein, SignalChem) (Homo sapiens, UniProt P48426); assay: Kinase Assay PIP4K2 A (Sprint); ADP-Glo biochemical assay; settings: Table 2; compounds listed under IC50 range headings
T2 construct: 4 nM PIP4K2A (full length protein, SignalChem); purchased SignalChem
T2 sequence (P48426 1-406): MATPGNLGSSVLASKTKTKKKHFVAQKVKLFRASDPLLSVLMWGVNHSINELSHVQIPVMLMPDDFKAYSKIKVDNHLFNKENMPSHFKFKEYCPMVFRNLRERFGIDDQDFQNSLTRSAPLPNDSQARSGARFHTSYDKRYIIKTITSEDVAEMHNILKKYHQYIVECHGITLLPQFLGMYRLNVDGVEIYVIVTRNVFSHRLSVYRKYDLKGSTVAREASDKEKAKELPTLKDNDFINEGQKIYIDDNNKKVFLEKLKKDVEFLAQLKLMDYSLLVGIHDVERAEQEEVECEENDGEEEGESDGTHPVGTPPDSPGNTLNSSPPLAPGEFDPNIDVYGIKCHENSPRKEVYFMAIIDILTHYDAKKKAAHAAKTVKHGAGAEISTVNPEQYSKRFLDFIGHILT
How it was run: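 Compounds (10-point, 3-fold dilutions) were pre-incubated 15 min at RT with an enzyme/substrate mix of 4 nM full-length PIP4K2A and 100 μM PI(5)P diC8 in 20 mM MOPS pH 7.2, 25 mM MgCl2, 0.005% Tween 20. A 60 μM ATP solution was added, reaction 1 h RT; ADP read by ADP-Glo luminescence, IC50 fitted from % inhibition vs DMSO.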

SMILES | IC50 [1] | IC50 [2]
Nc1ncc(-c2cnc3ncc(-c4cncc(-c5ccc(N6CCCC6=O)cc5)c4)cn23)cn1 [Example 334, 1-(4-(5-(3-(2-aminopyrimidin-5-yl)imidazo[1,2-a]pyrimidin-6-yl)pyridin-3-yl)phenyl)pyrrolidin-2-one] | 100 to 1000 nM | 100 to 1000 nM
CN1CCn2c(cc3c(-c4cncc(-c5ccc(C(=O)N6CCC(C)(C)CC6)cc5)c4)ccnc32)C1=O [Example 335, 4-(5-(4-(4,4-dimethylpiperidine-1-carbonyl)phenyl)pyridin-3-yl)-7-methyl-8,9-dihydropyrido[3′,2′:4,5]pyrrolo[1,2-a]pyrazin-6(7H)-one] | 100 to 1000 nM | 100 to 1000 nM
Cc1cc(-c2cncc(-c3ccc(N4CCCC4=O)cc3)c2)n2cnnc2n1 [Example 336, 1-(4-(5-(7-methyl-[1,2,4]triazolo[4,3-a]pyrimidin-5-yl)pyridin-3-yl)phenyl)pyrrolidin-2-one] | > 5000 nM | < 5000 nM
Nc1ccc(-c2cnc3ncc(-c4cncc(-c5ccc(N6CCCC6=O)cc5)c4)cn23)cn1 [Example 337, 1-(4-(5-(3-(6-aminopyridin-3-yl)imidazo[1,2-a]pyrimidin-6-yl)pyridin-3-yl)phenyl)pyrrolidin-2-one] | 100 to 1000 nM | 5 to 100 nM
CC(C)(O)c1cnc2[nH]c(C3CC3)c(-c3cncc(-c4ccc(N5CCCC5=O)cc4)c3)c2c1 [Example 338, 1-(4-(5-(2-cyclopropyl-5-(2-hydroxypropan-2-yl)-1H-pyrrolo[2,3-b]pyridin-3-yl)pyridin-3-yl)phenyl)pyrrolidin-2-one] | 10 to 100 nM | 100 to 1000 nM
Cc1ccc2c(c1)OCCN2C(=O)c1cc2c(-c3cncc(-c4ccc(N5CCCC5=O)cc4)c3)ccnc2[nH]1 [Example 339, 1-(4-(5-(2-(7-methyl-3,4-dihydro-2H-benzo[b][1,4]oxazine-4-carbonyl)-1H-pyrrolo[2,3-b]pyridin-4-yl)pyridin-3-yl)phenyl)pyrrolidin-2-one] | 100 to 1000 nM | 100 to 1000 nM
O=C1CCCN1c1ccc(-c2cncc(-c3ccnc4nncn34)c2)cc1 [Example 340, 1-(4-(5-([1,2,4]triazolo[4,3-a]pyrimidin-5-yl)pyridin-3-yl)phenyl)pyrrolidin-2-one] | > 5000 nM | < 5000 nM
O=C1CCCN1c1ccc(-c2cncc(-c3cnc4ncc(-c5cncnc5)n4c3)c2)cc1 [Example 341, 1-(4-(5-(3-(pyrimidin-5-yl)imidazo[1,2-a]pyrimidin-6-yl)pyridin-3-yl)phenyl)pyrrolidin-2-one] | 1000 to 2500 nM | 1000 to 2500 nM
CN1CCn2c(cc3c(-c4cncc(-c5ccc(N6CCC(C)(C)CC6=O)cc5)c4)ccnc32)C1=O [Example 342, 4-(5-(4-(4,4-dimethyl-2-oxopiperidin-1-yl)phenyl)pyridin-3-yl)-7-methyl-8,9-dihydropyrido[3′,2′:4,5]pyrrolo[1,2-a]pyrazin-6(7H)-one] | 100 to 1000 nM | 1000 to 2500 nM
CC(=O)Nc1ccc(-c2cn(C)c3ncc(-c4cncc(-c5ccc(N6CCCC6=O)cc5)c4)cc23)cn1 [Example 343, N-(5-(1-methyl-5-(5-(4-(2-oxopyrrolidin-1-yl)phenyl)pyridin-3-yl)-1H-pyrrolo[2,3-b]pyridin-3-yl)pyridin-2-yl)acetamide] | 100 to 1000 nM | 5 to 100 nM
O=C1CCCN1c1ccc(-c2cncc(-c3cnc4ncc(-c5cccnc5)n4c3)c2)cc1 [Example 344, 1-(4-(5-(3-(pyridin-3-yl)imidazo[1,2-a]pyrimidin-6-yl)pyridin-3-yl)phenyl)pyrrolidin-2-one] | > 5000 nM | 2500 to 5000 nM
Cn1cc(-c2ccc(N)nc2)c2cc(-c3cncc(-c4ccc(N5CCCC5=O)cc4)c3)cnc21 [Example 347, 1-(4-(5-(3-(6-aminopyridin-3-yl)-1-methyl-1H-pyrrolo[2,3-b]pyridin-5-yl)pyridin-3-yl)phenyl)pyrrolidin-2-one] | 100 to 1000 nM | 100 to 1000 nM
CN1CCn2c(cc3c(-c4cncc(-c5ccc(-c6nnc7n6CCC7)cc5)c4)ccnc32)C1=O [Example 348, 4-(5-(4-(6,7-dihydro-5H-pyrrolo[2,1-c][1,2,4]triazol-3-yl)phenyl)pyridin-3-yl)-7-methyl-8,9-dihydropyrido[3′,2′:4,5]pyrrolo[1,2-a]pyrazin-6(7H)-one] | 100 to 1000 nM | 100 to 1000 nM
CN1CCn2c(cc3c(-c4cncc(-c5ccc(C(=O)N6CCCC6)cc5)c4)ccnc32)C1=O [Example 349, 7-methyl-4-(5-(4-(pyrrolidine-1-carbonyl)phenyl)pyridin-3-yl)-8,9-dihydropyrido[3′,2′:4,5]pyrrolo[1,2-a]pyrazin-6(7H)-one] | 100 to 1000 nM | 100 to 1000 nM
CC(=O)Nc1ncc(-c2cn(C)c3ncc(-c4cncc(-c5ccc(N6CCCC6=O)cc5)c4)cc23)cn1 [Example 350, N-(5-(1-methyl-5-(5-(4-(2-oxopyrrolidin-1-yl)phenyl)pyridin-3-yl)-1H-pyrrolo[2,3-b]pyridin-3-yl)pyrimidin-2-yl)acetamide] | 100 to 1000 nM | 5 to 100 nM
Cc1c2n(c3nccc(-c4cncc(-c5ccc(-c6nncn6C6CCC6)cc5)c4)c13)CCN(c1ccccn1)C2=O [Example 356, 4-(5-(4-(4-cyclobutyl-4H-1,2,4-triazol-3-yl)phenyl)pyridin-3-yl)-5-methyl-7-(pyridin-2-yl)-8,9-dihydropyrido[3′,2′:4,5]pyrrolo[1,2-a]pyrazin-6(7H)-one] | 100 to 1000 nM | < 5000 nM
CC(C)c1cnnn1-c1ccc(-c2cncc(-c3ccnc4c3cc3n4CCN(c4ccccn4)C3=O)c2)cc1 [Example 357, 4-(5-(4-(5-isopropyl-1H-1,2,3-triazol-1-yl)phenyl)pyridin-3-yl)-7-(pyridin-2-yl)-8,9-dihydropyrido[3′,2′:4,5]pyrrolo[1,2-a]pyrazin-6(7H)-one] | 1 to 10 nM | 5 to 100 nM
CCn1cnnc1-c1ccc(-c2cncc(-c3ccnc4c3cc3n4CCN(C)C3=O)c2)cc1 [Example 358, 4-(5-(4-(4-ethyl-4H-1,2,4-triazol-3-yl)phenyl)pyridin-3-yl)-7-methyl-8,9-dihydropyrido[3′,2′:4,5]pyrrolo[1,2-a]pyrazin-6(7H)-one] | 1 to 10 nM | 100 to 1000 nM
CC(C)n1cncc1-c1ccc(-c2cncc(-c3ccnc4c3cc3n4CCN(C)C3=O)c2)cc1 [Example 359, 4-(5-(4-(1-isopropyl-1H-imidazol-5-yl)phenyl)pyridin-3-yl)-7-methyl-8,9-dihydropyrido[3′,2′:4,5]pyrrolo[1,2-a]pyrazin-6(7H)-one] | 100 to 1000 nM | 100 to 1000 nM
CC[C@H](C)n1cnnc1-c1ccc(-c2cncc(-c3ccnc4c3cc3n4CCN(C)C3=O)c2)cc1 [Example 360, (S)-4-(5-(4-(4-(sec-butyl)-4H-1,2,4-triazol-3-yl)phenyl)pyridin-3-yl)-7-methyl-8,9-dihydropyrido[3′,2′:4,5]pyrrolo[1,2-a]pyrazin-6(7H)-one] | 10 to 100 nM | 100 to 1000 nM
CC[C@@H](C)n1cnnc1-c1ccc(-c2cncc(-c3ccnc4c3cc3n4CCN(C)C3=O)c2)cc1 [Example 361, (R)-4-(5-(4-(4-(sec-butyl)-4H-1,2,4-triazol-3-yl)phenyl)pyridin-3-yl)-7-methyl-8,9-dihydropyrido[3′,2′:4,5]pyrrolo[1,2-a]pyrazin-6(7H)-one] | 10 to 100 nM | 100 to 1000 nM
CNC(=O)c1cc2c(-c3cnc(N)c(-c4ccc(-c5nncn5C(C)C)cc4)c3)ccnc2o1 [Example 362, 4-(6-amino-5-(4-(4-isopropyl-4H-1,2,4-triazol-3-yl)phenyl)pyridin-3-yl)-N-methylfuro[2,3-b]pyridine-2-carboxamide] | 10 to 100 nM | 100 to 1000 nM
CC(C)c1cnoc1-c1ccc(-c2cncc(-c3ccnc4c3cc3n4CCN(C)C3=O)c2)cc1 [Example 363, 4-(5-(4-(4-isopropylisoxazol-5-yl)phenyl)pyridin-3-yl)-7-methyl-8,9-dihydropyrido[3′,2′:4,5]pyrrolo[1,2-a]pyrazin-6(7H)-one] | 10 to 100 nM | 100 to 1000 nM
